One experiment has as its target Prothrombin (Homo sapiens, UniProt P00734). Put plainly: Binding affinity determined against thrombin by Dixon method.
The next experiment concerns the target T1, Serine protease 1 (Bos taurus, UniProt P00760).
T1 sequence (P00760 whole entry): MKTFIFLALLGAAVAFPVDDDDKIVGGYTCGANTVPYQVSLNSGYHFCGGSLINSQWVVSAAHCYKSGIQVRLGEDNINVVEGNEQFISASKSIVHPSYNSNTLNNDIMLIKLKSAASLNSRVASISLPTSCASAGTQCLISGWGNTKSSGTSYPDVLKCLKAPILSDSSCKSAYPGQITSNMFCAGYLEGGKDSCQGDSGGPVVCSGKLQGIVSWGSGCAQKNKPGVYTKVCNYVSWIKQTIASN
Put plainly: Binding affinity determined against trypsin by Dixon method.

The target in experiment [1] is Thrombin & trypsin (Homo sapiens) (UniProt P00734+P07477+P07478+P35030). Put plainly: Selectivity ratio (trypsin/thrombin) was calculated. The format is protein assay.

`CNC(C)CCCCC(NS(=O)(=O)c1cccc2c(N(C)C)cccc12)C(=O)N1CCCCC1` (stereo unspecified): the Ki on Prothrombin was over 10 µM.
As to `CN(C)c1cccc2c(S(=O)(=O)NC(CCCNC3=NCCN3)C(=O)N3CCCCC3)cccc12` (stereo unspecified), at Serine protease 1, the Ki was 116 µM. In addition, the Selectivity ratio in experiment [1] was 29.4.
For `CN(C)c1cccc2c(S(=O)(=O)NC(CCCNC3=NCCCN3)C(=O)N3CCCCC3)cccc12` (stereo unspecified), the Ki on Prothrombin was over 10 µM.
Turning to `CC/N=C(/N)NCCCC(NS(=O)(=O)c1cccc2c(N(C)C)cccc12)C(=O)N1CCCCC1` (stereo unspecified), the Ki is 337 µM on Serine protease 1 and 1.89 µM at Prothrombin. The Selectivity ratio in experiment [1] was 178.
As for `CN(C)c1cccc2c(S(=O)(=O)NC(CCCN3CCN=C3N)C(=O)N3CCCCC3)cccc12` (stereo unspecified), the results for the Ki at Serine protease 1 and at Prothrombin were 278 µM and 0.53 µM, respectively. Also, the Selectivity ratio in experiment [1] was 525.
For `C/N=C(/N)NCCCC(NS(=O)(=O)c1cccc2c(N(C)C)cccc12)C(=O)N1CCCCC1` (stereo unspecified), in that order: 922 µM, 0.958 µM and 962.
The corresponding values for `CN(C)c1cccc2c(S(=O)(=O)NC(CCCN=C(N)N)C(=O)N3CCCCC3)cccc12` (stereo unspecified) are 2.34 µM, 0.083 µM and 28.2.

Usually Ki stands for a measure of affinity in units of concentration, obtained from inhibition or displacement.

These data come from ChEMBL document CHEMBL1133878, “Selectivity enhancement induced by substitution of non-natural analogues of arginine and lysine in arginine-based thrombin inhibitors” (Bioorg Med Chem Lett, 2001).
